Measurements taken from US8012959B2, “Diaminopyrimidinecarboxamide derivative” (Astellas Pharma Inc., priority 2002, dated 2011).

How the values were obtained:
[1] = tested on: neutrophil infiltration; assay: SO2 gas-induced intra-alveolar neutrophil infiltration model; assay type: in vivo; details: hydrochloride, oral administration, 10 mg/kg, for 2 days, male C57BL/6 mice, SO2 gas 600 ppm, alveolar lavage fluid
Method: Evaluation Using SO2 Gas-induced Intra-alveolar Neutrophil Infiltration Model Mouse Asthma Model
Male C57BL/6 mice were exposed to SO2 gas (600 ppm) for 3 hours and sacrificed by bloodletting 48 hours after the exposure, and then alveolar lavage was carried out. After the measurement of total white blood cell count in the alveolar lavage fluid, cell smear preparations were stained to calculate existing ratio of neutrophil based on its morphological characteristics. The number of neutrophils was calculated from the total white blood cell count and existing ratio of respective cells. A compound to be tested or a control, 0.5% methyl cellulose, was orally administered for 2 days from just before the exposure or just after the exposure to before the alveolar lavage.

[2] = tested on: T cells; assay: Th2 differentiation (IL-4 production by differentiated mouse spleen T cells, ELISA); assay type: cell-based; details: inhibition of Th2 differentiation (IL-4 production, ELISA), C57BL/6 mouse spleen T cells
Method: Measurement of Th2 Differentiation
T cells were prepared by removing nylon wool (Wako Pure Chemical Industries)-adhering cells from C57BL/6 mouse (Charles River Japan) spleen cells. Using a 96 well plate to which an anti-CD3ε antibody (10 μg/ml) (Sederlane) had been immobilized in advance, T cells (2×10^5 cells/0.2 ml) were inoculated under stimulation with anti-CD28 antibody (1 μg/ml) (Pharmingen), IL-2 (10 ng/ml) (Peprotech) and IL-4 (10 ng/ml) (Peprotech). After 2 days of the culturing, total volume of the cell suspension was diluted to 2 ml with a medium containing IL-2 (10 ng/ml) and IL-4 (10 ng/ml). The differentiation was induced by further carrying out the culturing for 3 days. By counting the cell density, the cells after differentiation were adjusted to 1×10^6 cells/ml and inoculated into a 96 well plate immobilized with the anti-CD3 ε antibody, in order to induce IL-4 production. The supernatant after 24 hours of the stimulation was recovered, and the IL-4 production was determined by an ELISA method. The antibody used in the ELISA was purchased from Pharmingen. Also, an HRPO-labeled streptoavidin (Amersham Pharmacia) was used in the detection of biotinylated antibody, and a peroxidase color developing reagent (Sumitomo Bakelite) was used in the HRPO color development. In the case of the evaluation of compounds, compound dilutions were added to the wells before the addition of T cells, at the time of the dilution 2 days later, compounds equivalent to the initial concentration were added. Also, regarding the dilution of compounds, dilution was carried out using 10% FBS-containing RPMI 1640 such that the final concentration of DMSO in which each compound was dissolved became 0.1% or less. Inhibitory activity of each tested compound was evaluated in which the IL-4 production when DMSO was added instead of the compound was regarded as 100%, and the IL-4 production when anti-CD28 antibody and IL-4 were not added as 0%.

[3] = biological target: T1, STAT 6 (Mus musculus, UniProt P52633); assay: STAT 6-dependent reporter activity (IL-4-stimulated CI/FW4 luciferase reporter cell); assay type: cell-based, human
T1 construct: An STAT 6 reporter cell CI/FW4 was constructed by the above operation; endogenous in cells; host or cells: CI/FW4 (FW4 cell stably carrying the pGL2-CI/bs luciferase reporter)
T1 sequence (P52633 1-837): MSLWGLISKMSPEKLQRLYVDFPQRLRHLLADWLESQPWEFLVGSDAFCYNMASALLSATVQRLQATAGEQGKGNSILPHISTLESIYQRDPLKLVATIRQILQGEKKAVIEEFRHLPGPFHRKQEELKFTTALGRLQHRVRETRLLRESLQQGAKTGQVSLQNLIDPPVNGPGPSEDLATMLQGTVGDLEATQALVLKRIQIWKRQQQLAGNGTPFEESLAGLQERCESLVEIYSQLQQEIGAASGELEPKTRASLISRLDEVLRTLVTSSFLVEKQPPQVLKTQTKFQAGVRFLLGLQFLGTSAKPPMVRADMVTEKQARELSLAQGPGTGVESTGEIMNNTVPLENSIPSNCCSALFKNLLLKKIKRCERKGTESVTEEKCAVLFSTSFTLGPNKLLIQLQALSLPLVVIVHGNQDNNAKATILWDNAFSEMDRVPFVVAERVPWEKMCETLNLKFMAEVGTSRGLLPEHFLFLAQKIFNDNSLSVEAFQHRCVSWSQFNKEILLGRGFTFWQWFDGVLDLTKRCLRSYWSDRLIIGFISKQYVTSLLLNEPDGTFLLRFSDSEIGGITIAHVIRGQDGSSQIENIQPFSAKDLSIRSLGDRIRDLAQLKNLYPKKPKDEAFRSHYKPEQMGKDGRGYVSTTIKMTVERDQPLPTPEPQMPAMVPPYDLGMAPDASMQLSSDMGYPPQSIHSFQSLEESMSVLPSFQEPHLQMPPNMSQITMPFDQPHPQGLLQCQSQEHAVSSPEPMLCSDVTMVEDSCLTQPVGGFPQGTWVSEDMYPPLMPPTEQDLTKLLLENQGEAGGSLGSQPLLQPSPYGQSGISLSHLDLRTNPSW
Method: Measurement of STAT 6-Dependent Reporter Activity 1) Construction of STAT 6 Reactive Reporter Plasmid A STAT 6 reporter plasmid pGL2-CI was prepared by the following method. […] Also, […] sequence DNA molecules (SEQ ID NOs:3 and 4) contained in the adenovirus major late promoter were annealed and inserted into BglII and HindIII sites of the same vector. Thereafter, pGL2-CI/bs was constructed by inserting the blasticidin resistance gene of pUCSV-BD (Funakoshi) into BamHI site of the constructed pGL2-CI. 2) Construction of STAT 6 Reporter Cell Gene transfer of […] into a human IL-4 reactive cell FW4 cell (Mol. Cell. Biol., 14: 5433-5440) was carried out by the electroporation method (320 V, 960 μF/0.4 cm cuvette (Nippon Bio-Rad Laboratories)), and 6 μg/ml of blasticidin (Funakoshi) was added 40 hours thereafter to select a resistant cell. Confirmation of constant transfer of the reporter plasmid was carried out by detecting luciferase induce by IL-4 stimulation. An STAT 6 reporter cell CI/FW4 was constructed by the above operation. 3) STAT Reporter Assay Using CI/FW4 Cell Stimulation of the CI/FW4 cell (1×10^4 cells/0.1 ml) with 10 ng/ml of human IL-4 (Genzyme Techne) was carried out using a white 96 well plate (Nunc). In the case of the evaluation of compounds, compound dilutions were added to the wells before inoculating the cells into the 96 well plate. […] Thereafter, 50 μl of a luciferase substrate solution (10 mM Tris-HCl pH 7.8, 5 mM luciferin, 2 mM coenzyme A, 2 mM ATP, 0.5 mM MgCl2 and 2 mM Mg(OH)2) was added, followed by stirring for 1 minute. Then, the luciferase activity was measured using ML3000 luminometer (Dynatech Laboratories, Inc). Inhibitory activities of tested compounds were evaluated in which the luminescence intensity (relative light unit: […] The results are shown in the following Table 26.

[4] = inhibition ratio at 0.1 μM compound, IL-4-stimulated CI/FW4 cell, luciferase
[5] = inhibition ratio at 1 μM compound, IL-4-stimulated CI/FW4 cell, luciferase

| inhibition at 0.1 µM [3, 4] [%] | inhibition at 1 µM [3, 5] [%] | inhibition of STAT 6-dependent reporter activity (activity similar to the compounds of Table 26) ([3]; CI/FW4 cell, 10 ng/ml human IL-4, luciferase) | Compound | inhibition of neutrophil infiltration [1] | Inh (%) [2] [%] | Inh (%) 0.1 μM [3, 4] [%] | Inh (%) 1 μM [3, 5] [%] |
| --- | --- | --- | --- | --- | --- | --- | --- |
| 100 | 100 |  | NC(=O)c1cnc(Nc2ccc(N3CCOCC3)cc2)nc1NCc1ccccc1 [Example 3, 4-benzylamino-2-{[4-(morpholin-4-yl)phenyl]amino}pyrimidine-5-carboxamide] | about 70% | 98 |  |  |
|  |  |  | COc1ccccc1CNc1nc(Nc2ccc(N3CCOCC3)cc2)ncc1C(N)=O [Example 35] |  | 94 | 95 | 100 |
|  |  | good activity | Cc1cccc(Nc2nc(NCCc3ccc(O)c(Cl)c3)ncc2C(N)=O)c1 [Production Example 99] |  | 85 |  |  |
